According to ChEMBL document CHEMBL1201862, “PubChem BioAssay data set” (2004):
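Each compound was tested at five concentrations against cells in 96-well plates for 48 hours. GI50 = concentration required for 50% inhibition of growth.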 Calls of active or inactive are those of the source. Cut-off read from the data, not from the text of the source: active = GI50 up to about 1.1 µM and inactive = higher.

Legend:
Test in all cases: inhibition of tumour cell growth, NCI panel, 48 h
SW-620 = tested on: SW-620
A549 = tested on: A549
A498 = tested on: A498
ACHN = tested on: ACHN
CCRF-CEM = tested on: CCRF-CEM
HL-60 = tested on: HL-60
SNB-75 = tested on: SNB-75
OVCAR-5 = tested on: OVCAR-5
HT-29 = tested on: HT-29
IGROV-1 = tested on: IGROV-1
SNB-19 = tested on: SNB-19
KM-20L2 = tested on: KM-20L2
Hs-578T = tested on: Hs-578T
DLD-1 = tested on: DLD-1
BT-549 = tested on: BT-549
SK-MEL-2 = tested on: SK-MEL-2
SK-OV-3 = tested on: SK-OV-3
SK-MEL-28 = tested on: SK-MEL-28
MDA-N = tested on: MDA-N
LOX IMVI = tested on: LOX IMVI
NCI/ADR-RES = tested on: NCI/ADR-RES
HCC 2998 = tested on: HCC 2998
786-0 = tested on: 786-0
SF-268 = tested on: SF-268
DMS-114 = tested on: DMS-114
OVCAR-8 = tested on: OVCAR-8
OVCAR-3 = tested on: OVCAR-3
EKVX = tested on: EKVX
NCI-H23 = tested on: NCI-H23
TK-10 = tested on: TK-10
MDA-MB-435 = tested on: MDA-MB-435
PC-3 = tested on: PC-3
SNB-78 = tested on: SNB-78
OVCAR-4 = tested on: OVCAR-4
SF-295 = tested on: SF-295
MDA-MB-231 = tested on: MDA-MB-231
DU-145 = tested on: DU-145
M19-MEL = tested on: M19-MEL
UO-31 = tested on: UO-31
NCI-H522 = tested on: NCI-H522
NCI-H460 = tested on: NCI-H460
RXF 393 = tested on: RXF 393
HCT-15 = tested on: HCT-15
K562 = tested on: K562
T47D = tested on: T47D
MOLT-4 = tested on: MOLT-4
SN12C = tested on: SN12C
MCF7 = tested on: MCF7
HOP-62 = tested on: HOP-62
UACC-62 = tested on: UACC-62
HOP-18 = tested on: HOP-18
NCI-H226 = tested on: NCI-H226
Malme-3M = tested on: Malme-3M
RPMI-8226 = tested on: RPMI-8226
XF498 = tested on: XF498
CAKI-1 = tested on: CAKI-1
KM12 = tested on: KM12
SK-MEL-5 = tested on: SK-MEL-5
HCT-116 = tested on: HCT-116
M14 = tested on: M14
UACC-257 = tested on: UACC-257
U-251 = tested on: U-251
COLO 205 = tested on: COLO 205
DMS-273 = tested on: DMS-273
HOP-92 = tested on: HOP-92
SR = tested on: SR
SF-539 = tested on: SF-539
LXFL 529 = tested on: LXFL 529

Measured: GI50

CN1N=C(N)c2cn(C3OC(COP(=O)(O)O)C(O)C3O)c3ncnc1c23 (configuration not stated)
active: IGROV-1 0.935 µM | DLD-1 1.03 µM | SK-OV-3 0.822 µM | LOX IMVI 1.03 µM | PC-3 0.836 µM | T47D 0.5 µM | MOLT-4 0.622 µM | HOP-92 0.5 µM
19.7 µM: HCT-15
inactive: SW-620 91.8 µM | A549 39.7 µM | A498 33.7 µM | ACHN 3.16 µM | CCRF-CEM 13 µM | HL-60 1.65 µM | SNB-75 5.33 µM | OVCAR-5 9.84 µM | HT-29 17.3 µM | SNB-19 53.3 µM | KM-20L2 58.5 µM | Hs-578T 14.1 µM | BT-549 7.48 µM | SK-MEL-2 8.26 µM | SK-MEL-28 194 µM | MDA-N 38.4 µM | NCI/ADR-RES 4.08 µM | HCC 2998 129 µM | 786-0 20.5 µM | SF-268 55.6 µM | DMS-114 1620 µM | OVCAR-8 1.28 µM | OVCAR-3 35.2 µM | EKVX 7.52 µM | NCI-H23 25.9 µM | TK-10 2.88 µM | MDA-MB-435 34.3 µM | SNB-78 79.6 µM | OVCAR-4 5.86 µM | SF-295 144 µM | MDA-MB-231 10.9 µM | DU-145 1.48 µM | M19-MEL 390 µM | UO-31 4.97 µM | NCI-H522 2050 µM | NCI-H460 52.8 µM | RXF 393 14 µM | K562 385 µM | SN12C 4.24 µM | MCF7 1.65 µM | HOP-62 23.5 µM | UACC-62 28.4 µM | HOP-18 9.14 µM | NCI-H226 7.41 µM | Malme-3M 136 µM | RPMI-8226 282 µM | XF498 12.4 µM | CAKI-1 1.18 µM | KM12 2980 µM | SK-MEL-5 1080 µM | HCT-116 41.8 µM | M14 7.33 µM | UACC-257 152 µM | U-251 379 µM | COLO 205 106 µM | DMS-273 18.9 µM | SR 10.8 µM | SF-539 32.4 µM

COC(=O)C1=C(C[S+]([O-])c2ccccc2[N+](=O)[O-])ON(C)C1c1ccccc1 (configuration not stated)
inactive: SW-620 25.4 µM | A549 47.2 µM | A498 > 100 µM | ACHN 31.2 µM | CCRF-CEM 10.5 µM | HL-60 17.4 µM | SNB-75 24.8 µM | OVCAR-5 > 100 µM | HT-29 32.1 µM | IGROV-1 > 100 µM | SNB-19 > 100 µM | KM-20L2 21.5 µM | DLD-1 30.9 µM | SK-MEL-2 62.1 µM | SK-OV-3 > 100 µM | LOX IMVI 13.3 µM | HCC 2998 15.8 µM | 786-0 40.6 µM | SF-268 27.5 µM | DMS-114 24.7 µM | OVCAR-8 21.3 µM | OVCAR-3 40.5 µM | EKVX 55.6 µM | NCI-H23 > 100 µM | TK-10 35.7 µM | SNB-78 82 µM | OVCAR-4 66.7 µM | SF-295 65.8 µM | M19-MEL 47 µM | UO-31 46.8 µM | NCI-H522 18.4 µM | NCI-H460 > 100 µM | RXF 393 25.4 µM | K562 22.4 µM | MOLT-4 31 µM | SN12C 19 µM | HOP-62 > 100 µM | UACC-62 28.8 µM | HOP-18 52.2 µM | NCI-H226 37.8 µM | Malme-3M > 100 µM | RPMI-8226 34 µM | XF498 31.1 µM | CAKI-1 45.7 µM | KM12 55.5 µM | SK-MEL-5 38.8 µM | HCT-116 25.5 µM | M14 94 µM | LXFL 529 42 µM | UACC-257 35.2 µM | U-251 34.4 µM | COLO 205 43.7 µM | DMS-273 28.1 µM | SF-539 27.3 µM
22.5 µM: HCT-15
